≈ marks a conversion by molar mass, not a printed value.
What was measured:
[1] = test system: HeLa cells (Cervical Cancer); assay: HeLa cells (Cervical Cancer) MTT assay; format: cell-based; settings: Homo sapiens, HeLa, 48 h, ± SD from three independent experiments, NA: did not show anticancer activity at 30 µM
Description: (§1) Cytotoxicity against BJ Human fibroblast cells, and anti-cancer activity against PC3, HeLa and MCF-7 cancer cell lines were evaluated by following the procedure as described in the literature (Supplementary Materials). […]
(§2) of positive control – mean of O.D of negative control)*100).
(§3) The results (% inhibition) were processed by using Soft- Max Pro software (Molecular Device, USA).
(§4) Following concentrations were used to calculate (in case) of IC50:
(§5) Standard drug used in the MTT assay was doxorubicin. […]
C. HeLa cells (Cervical Cancer) assay
Cytotoxic activity of compounds was evaluated in 96-well flat-bottomed micro plates by using the standard MTT (3-[4, 5-dimethylthiazole-2-yl]-2, 5-diphenyl-tetrazolium bromide) colorimetric assay40.
For this purpose, HeLa cells (Cervical Cancer) were cultured in Minimum Essential Medium Eagle, supplemented with 5% of fetal bovine serum (FBS) , 100 IU/ml of penicillin and 100 µg/ml of streptomycin in 75 cm2 flasks, and kept in 5% CO2 incubator at 37 °C. Exponentially growing cells were harvested, counted with haemocytometer and diluted with a particular medium. Cell culture with the concentration of 6x10^4 cells/ml was prepared and introduced (100 µL/well) into 96 -well plates. After overnight incubation, medium was removed and 200 µL of fresh medium was added with different concentrations of compounds (1-30µM). After 48 hrs, 200 µL MTT (0.5 mg/ml) was added to each well and incubated further for 4 hrs. Subsequently, 100µL of DMSO was added to each well. The extent of MTT reduction to formazan within cells was calculated by measuring the absorbance at 570 nm, using a micro plate reader (Spectra Max plus, Molecular Devices, CA, USA). The cytotoxicity was recorded as concentration causing 50% growth inhibition (IC 50) for HeLa. The percent inhibition was calculated by using the following formula: […]
The results (% inhibition) were processed by using Soft - Max Pro software (Molecular Device, USA).
(§6) 1. Mosmann T. Rapid colorimetric assay for cellular growth and survival: application to proliferation and cytotoxicity assays. J Immunol Meth 1983, 65, 55–63. […]

[2] = test system: Human fibroblast BJ; assay: Cytotoxicity MTT assay, BJ human fibroblast cells; format: cell-based; settings: 48 hrs, ± SD from three independent experiments, NA: did not show activity at 30 µM
Description: (§7) Cytotoxicity against BJ Human fibroblast cells, and anti-cancer activity against PC3, HeLa and MCF-7 cancer cell lines were evaluated by following the procedure as described in the literature (Supplementary Materials).
The Biological Activity Assays Protocols […]
(§8) of positive control – mean of O.D of negative control)*100). […]
as §5
B. Cytotoxicity assay Protocol (BJ Human fibroblast cells) […]
standard MTT (3-[4, 5-dimethylthiazole-2-yl]-2, 5-diphenyl-tetrazolium bromide) colorimetric assay (Price & J. McMillan1, 1990). For this purpose, BJ Human fibroblast cells were cultured in Dulbecco’s Modified Eagle Medium, supplemented with 10% of fetal bovine serum (FBS), 100 IU/ml of penicillin and 100 µg/ml of streptomycin and 2 mM L‐glutamine in 75 cm2 flasks, and kept in 5% CO2 incubator at 37 °C (Mannerström, Toimela, Sarkanen & Heinonen, 2017).
Exponentially growing cells were harvested, counted with haemocytometer and diluted with a particular medium. Cell culture with the concentration of 6x10^4cells/ml was prepared and introduced (100 µL/well) into 96-well plates. After overnight incubation, medium was removed and 200 µL of fresh medium was added with different concentrations of compounds (1 -30µM). After 48 hrs, 200 µL MTT (0.5 mg/ml) was added to each well and incubated further for 3 hrs.
Subsequently, 100µL of DMSO was added to each well. The extent of MTT reduction to formazan within cells was calculated by measuring the absorbance at 550 nm, using a micro plate reader (Spectra Max plus, Molecular Devices, CA, USA). The cytotoxicity was recorded as concentra tion causing 50% growth inhibition (IC50) for BJ cells. The percent inhibition was calculated by using the following […]
Following concentrations were used to calculate (in case) of IC50: […]

[3] = test system: PC3 cells (Prostate Cancer); assay: PC3 cells (Prostate Cancer) MTT assay; format: cell-based; settings: for IC50: MTT assay, 48 hrs, ± SD from three independent experiments, NA: did not show anticancer activity at 30 µM
Description: as §7
The Biological Activity Assays Protocols
A. PC3 cells (Prostate Cancer) assay […]
For this purpose, PC3 cells (Prostate Cancer) were cultured in Dulbecco’s Modified Eagle Medium, supplemented with 5% of fetal bovine serum (FBS), 100 IU/ml of penicillin and 100 µg/ml of streptomycin in 75 cm2 flasks, and kept in 5% CO2 incubator at 37 °C. Exponentially growing cells were harvested, counted with haemocytometer and diluted with a particular medium. Cell culture with the concentration of 1x10^5 cells/ml was prepared and introduced (100 µL/well) into 96-well plates. After overnight incubation, medium was removed and 200 µL of fresh medium was added with different concentrations of compounds (1-30µM). After 48 hrs, 200 µL MTT (0.5 mg/ml) was added to each well and incubated further for 4 hrs. Subsequently, 100µL of DMSO was added to each well. The extent of MTT reduction to formazan within cells was calculated by measuring the absorbance at 570 nm, using a micro plate reader (Spectra Max plus, Molecular Devices, CA, USA). The cytotoxicity was recorded as concentration causing 50% growth inhibition (IC50) for PC3 cells. The percent inhibition was calculated by using the following formula: […]
as §2, §3
Standard drug used in the MTT assay was doxorubicin.
as §6

[4] = test system: MCF-7 breast cancer cell line; assay: MCF-7 breast cancer cell line MTT assay; format: cell-based; settings: for IC50: MTT assay, 48 hours, ± SD from three independent experiments, NA: did not show anticancer activity at 30 µM
Description: as §1, §8, §4, §5
D. MCF-7 breast cancer cell line assay.
MTT assay is a rapid and quantitative assay capable of measuring the surviving or proliferating cells.
It is based on the reduction of tetrazolium salt MTT (3-(4,5-dimethylthiazol-yl)-2,5-diphenyl tetrazolium bromide) by various dehydrogenase enzymes present in living cells. The tetrazolium ring present in MTT is cleaved in active mitochondria, which results in production of purple colored formazan crystals. These crystals are dissolved in DMSO and optical density of the color produced is taken by spectrophotometer (ELISA reader), with high efficiency and accuracy.
This assay was optimized and slightly modified according to our cell lines, i.e. MCF-7 breast cancer cell […]
1. MCF-7 cell line were cultured in Dulbecco’s modified Eagle medium (containing 10% fetal bovine serum) in 75 cc flasks, and kept in 5% CO 2 incubator at 37 °C.
2. Upon confluency, cells were harvested and plated in 96-well tissue culture treated flat bottom plates (seeding density 8,000 cells/well for MCF-7) in 100 µL medium.
3. Next day, compounds were added in triplicate at 50 µM concentration, and incubated for 48 hours. For natural extracts, the concentration was 50 µg/mL.
4. After 48 hrs incubation, the compounds were removed and 200 µL MTT at 0.5 mg/mL was added to each well and incubated at 37 °C for 3 hours.
5. Formazan crystals, formed by reduction of MTT were dissolved in 100 µL DMSO and absorbance was taken at 570 nm using micro-plate reader (Spectra Max plus, Molecular […]
6. The percent inhibition or decrease in viable cells was calculated by following formula:
% Inhibition = 100 - (mean of O.D. of test compound - mean of O.D. of negative control) / (mean of O.D. of positive control - mean of O.D. of negative control) x 100) […]
Twenty (20) mM stock concentration of compounds were diluted to working concentration of 50 µM, and then further serial dilutions were made in order to get less than 50% inhibition.
The IC50 was then calculated by using EZ-fit5 software.

[5] = test system: MDAMB (human mammary); design: method as in PMID 8597898, doi:10.1016/j.tet.2007.05.127, doi:10.1021/jo00248a040; settings: cited from earlier work
[6] = test system: P-388 cell lines; design: method as in PMID 8597898, doi:10.1016/j.tet.2007.05.127, doi:10.1021/jo00248a040; settings: cited from earlier work
[7] = test system: HCT-8 (human colon); design: method as in PMID 8597898, doi:10.1016/j.tet.2007.05.127, doi:10.1021/jo00248a040; settings: cited from earlier work
[8] = test system: A-549 (human lung); design: method as in PMID 8597898, doi:10.1016/j.tet.2007.05.127, doi:10.1021/jo00248a040; settings: cited from earlier work

| SMILES | IC50 [1] | melting point | IC50 [2] | IC50 ([3]; Homo sapiens, PC-3, 48 h) | IC50 ([4]; Homo sapiens, MCF7, 48 h) | IC50 [4] | anticancer activity against MCF-7 breast cancer cell line (in words) ([4]; in comparison to doxorubicin) | IC50 [3] | anticancer activity against PC3 prostate cancer cell line (in words) ([3]; in comparison to doxorubicin) | IC50 against MDAMB (human mammary) cancer cell line [5] | IC50, anti-tumor activity against P-388 cell lines [6] | IC50 against HCT-8 (human colon) cancer cell line [7] | IC50 against A-549 (human lung) cancer cell line [8] |
| --- | --- | --- | --- | --- | --- | --- | --- | --- | --- | --- | --- | --- | --- |
| COc1cccc(C(=O)CC(c2cc3ccccc3o2)c2c[nH]c3cc(F)ccc23)c1 (stereo not drawn) [Compound 3m, 3-(Benzofuran-2-yl)-3-(6-fluoro-1H-indol-3-yl)-1-(3-methoxyphenyl)propan-1-one] | 15.2 ± 0.2 µM | 154 to 155 °C | > 50 µM | 19.3 ± 0.1 µM | 22.9 ± 0.43 µM | 22.9 ± 0.43 µM |  |  |  |  |  |  |  |
| O=C(CC(c1cc2ccccc2o1)c1c[nH]c2ccccc12)c1ccc(F)cc1 (stereo not drawn) [Compound 3b, 3-(Benzofuran-2-yl)-1-(4-fluorophenyl)-3-(1H-indol-3-yl)propan-1-one] | 8.2 ± 0.2 µM | 157 to 158 °C | > 30 µM | 22.2 ± 0.5 µM | 12.3 ± 0.04 µM | 12.37 ± 0.04 µM |  |  |  |  |  |  |  |
| O=C(CC(c1cc2ccccc2o1)c1c[nH]c2ccc(Br)cc12)c1ccc(F)cc1 (stereo not drawn) [Compound 3c, 3-(Benzofuran-2-yl)-3-(5-bromo-1H-indol-3-yl)-1-(4-fluorophenyl)propan-1-one] | 10.8 ± 0.1 µM | 167 to 168 °C | > 30 µM | 21.9 ± 1.5 µM | 25.9 ± 0.8 µM |  |  |  |  |  |  |  |  |
| O=C(CC(c1cc2ccccc2o1)c1c[nH]c2ccccc12)c1ccccc1 (stereo not drawn) [Compound 3a, 3-(Benzofuran-2-yl)-3-(1H-indol-3-yl)-1-phenylpropan-1-one] | 22.5 ± 0.9 µM | 114 to 115 °C |  | 11.4 ± 0.2 µM |  |  | inactive |  |  |  |  |  |  |
| O=C(CC(c1cc2ccccc2o1)c1c[nH]c2ccccc12)c1ccc(Cl)cc1 (stereo not drawn) [Compound 3f, 3-(Benzofuran-2-yl)-1-(4-chlorophenyl)-3-(1H-indol-3-yl)propan-1-one] | 11.9 ± 0.2 µM | 126 to 127 °C | > 30 µM | 16.3 ± 1.6 µM | 19.3 ± 0.78 µM |  |  | 27 ± 0.4 µM |  |  |  |  |  |
| COc1ccccc1C(=O)CC(c1cc2ccccc2o1)c1c[nH]c2ccc(Br)cc12 (stereo not drawn) [Compound 3s, 3-(Benzofuran-2-yl)-3-(5-bromo-1H-indol-3-yl)-1-(2-methoxyphenyl)propan-1-one] | 18.4 ± 0.2 µM | 60 to 61 °C |  | 29.7 ± 0.5 µM | 28.6 ± 0.33 µM |  |  |  | inactive |  |  |  |  |
| CN1CC(c2c[nH]c3c(Br)c(Br)cc(O)c23)NCC1c1c[nH]c2cc(Br)ccc12 (stereo not drawn) [dragmacidin] |  |  |  |  |  |  |  |  |  | 1 to 10 µg/mL | 15 µg/mL (≈ 25.7 µM) | 1 to 10 µg/mL | 1 to 10 µg/mL |
